According to patent publication US11492343B2, “Polymorph of flibanserin and preparation method thereof and use of same” (priority 2016, dated 2022):

Legend:
[1] = Solubility of crystal forms in pH 6.8 buffer solution (HPLC of filtrate); assay type: physicochemical; conditions: for Solubility in pH 6.8 buffer: 20 mg in 1 mL pH 6.8 buffer, suspension equilibrated for 1 hour, 0.45 μm filter, HPLC; for Solubility compared with crystal form A: in physiological solution
Experimental: The solubility of several new crystal forms prepared in the above examples and Form A (prepared according to the method of WO2003/014079) in a pH buffer solution (pH 6.8) was determined. Precisely weigh 20 mg Form I, Form II, Form V and Form A in a 2-mL glass vial, add 1 mL of pH 6.8 buffer, seal with cap, and mix on a rotating mixer. After the suspension was equilibrated for 1 hour, the mixture was filtered through a 0.45 μm needle filter, and the concentration of flibanserin in the filtrate was analyzed by HPLC to obtain the solubility of different crystal forms.

[2] = prior art WO2003/014079; cited from earlier work
[3] = prior art; cited from earlier work

Row | Structure (SMILES) | Solubility in pH 6.8 buffer [1] | Solubility compared with crystal form A [1] | Stability under pressure and mechanical stress conditions [2] | Solubility in water [3]
1 | O=c1[nH]c2ccccc2n1CCN1CCN(c2cccc(C(F)(F)F)c2)CC1 [Form I] | 0.004 mg/mL | greater |  | 
2 | O=c1[nH]c2ccccc2n1CCN1CCN(c2cccc(C(F)(F)F)c2)CC1 [Form V] | 0.010 mg/mL | greater |  | 
3 | O=c1[nH]c2ccccc2n1CCN1CCN(c2cccc(C(F)(F)F)c2)CC1 [Form II] | 0.008 mg/mL | greater |  | 
4 | O=c1[nH]c2ccccc2n1CCN1CCN(c2cccc(C(F)(F)F)c2)CC1 [Form B] |  |  | low stability | 
5 | O=c1[nH]c2ccccc2n1CCN1CCN(c2cccc(C(F)(F)F)c2)CC1 [Form A] |  |  |  | very small
